From patent publication US12153287B2, “Sustained fatty acid release from contact lens” (CooperVision International Limited, priority 2022, dated 2024) come the findings set out here.

The experiment deals with T1, recombinant human PLA2G2A (sPLA2-IIA) (Homo sapiens, UniProt P14555).
T1 sequence (P14555 21-144): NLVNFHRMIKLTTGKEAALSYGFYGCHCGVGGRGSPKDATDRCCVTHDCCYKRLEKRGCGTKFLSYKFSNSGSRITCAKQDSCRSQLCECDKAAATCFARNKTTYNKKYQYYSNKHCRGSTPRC
The experiment in a line: Susceptibility of phospholipid digestion by sPLA2-IIA (lens pieces in ATF with and without sPLA2, LCMS of released fatty acid). The following applies: phospholipid present in a silicone hydrogel contact lens body.

Method: Each phospholipid-loaded lens is removed from its package and placed in a 6 mL glass vial containing 5 mL of the ATF described in Example 2 at room temperature on a shaker at 125 rpm overnight to elute any free fatty acid that may be present in the lens.
Each lens is rinsed in a 6 ml glass vial containing a fresh aliquot of 5 mL ATF for 30 minutes prior to running the digestion assay.
Two 4 mm pieces are cut from each lens. One piece of each lens is placed in a tube with 100 μL ATF and the other piece is placed in a tube containing 100 μL ATF+sPLA2. The tubes are incubated at 35±2° C. for 4 hours with no shaking.
T=0 hr HPLC vials are also prepared (50 μl ATF+500 μl IPA). All vials are sonicated for 15 minutes and centrifuged. […]
The supernatants are injected on an LCMS instrument equipped with an ACQUITY UPLC BEH C18 1.7 μg, 2.1 mm×15 cm column and running a mobile phase gradient from 65% A to 90% B at a flow rate of 0.35 mL/min with A=40% acetonitrile in water with 10 mM ammonium acetate and 0.2% (v/v) ammonium hydroxide, and B=10% acetonitrile in IPA with 10 mM ammonium acetate and 0.2% (v/v) ammonium hydroxide. […] The peak for the particular fatty acid of interest in the supernatants (i.e., the fatty acid that is released from the sn-2 position of the phospholipid in the contact lens) is measured. The ratio of fatty acid peak area in ATF with and without sPLA2 is calculated. […]

In the case of `CCCCCCCCCCCCCC(=O)OC[C@H](COP(=O)([O-])OCC[N+](C)(C)C)OC(=O)CCCCCCCCCCCCC` [DMPC, 1,2-dimyristoyl-sn-glycero-3-phosphocholine], the “Susceptibility to digestion by sPLA2 enzymes found in human tears” value was “not susceptible to digestion”.
As for `CCCCCCCC/C=C\CCCCCCCC(=O)OC[C@H](COP(=O)([O-])OCC[N+](C)(C)C)OC(=O)CCCCCCC/C=C\CCCCCCCC` [DOPC, 1,2-dioleoyl-sn-glycero-3-phosphocholine], the “Susceptibility to digestion by sPLA2 enzymes found in human tears” value is on record as “not susceptible to digestion”.
